Assay results published in paper PMC3547291 (Bioorganic & medicinal chemistry letters, 2012).

Experiments:
[1] = target: PDGFRβ (Homo sapiens, UniProt P09619); assay: Kinase inhibition functional assay; type: biochemical
[2] = target: T1, FLT3 (Homo sapiens, UniProt P36888); assay: Kinase inhibition functional assay; type: biochemical
T1 sequence (P36888 27-993): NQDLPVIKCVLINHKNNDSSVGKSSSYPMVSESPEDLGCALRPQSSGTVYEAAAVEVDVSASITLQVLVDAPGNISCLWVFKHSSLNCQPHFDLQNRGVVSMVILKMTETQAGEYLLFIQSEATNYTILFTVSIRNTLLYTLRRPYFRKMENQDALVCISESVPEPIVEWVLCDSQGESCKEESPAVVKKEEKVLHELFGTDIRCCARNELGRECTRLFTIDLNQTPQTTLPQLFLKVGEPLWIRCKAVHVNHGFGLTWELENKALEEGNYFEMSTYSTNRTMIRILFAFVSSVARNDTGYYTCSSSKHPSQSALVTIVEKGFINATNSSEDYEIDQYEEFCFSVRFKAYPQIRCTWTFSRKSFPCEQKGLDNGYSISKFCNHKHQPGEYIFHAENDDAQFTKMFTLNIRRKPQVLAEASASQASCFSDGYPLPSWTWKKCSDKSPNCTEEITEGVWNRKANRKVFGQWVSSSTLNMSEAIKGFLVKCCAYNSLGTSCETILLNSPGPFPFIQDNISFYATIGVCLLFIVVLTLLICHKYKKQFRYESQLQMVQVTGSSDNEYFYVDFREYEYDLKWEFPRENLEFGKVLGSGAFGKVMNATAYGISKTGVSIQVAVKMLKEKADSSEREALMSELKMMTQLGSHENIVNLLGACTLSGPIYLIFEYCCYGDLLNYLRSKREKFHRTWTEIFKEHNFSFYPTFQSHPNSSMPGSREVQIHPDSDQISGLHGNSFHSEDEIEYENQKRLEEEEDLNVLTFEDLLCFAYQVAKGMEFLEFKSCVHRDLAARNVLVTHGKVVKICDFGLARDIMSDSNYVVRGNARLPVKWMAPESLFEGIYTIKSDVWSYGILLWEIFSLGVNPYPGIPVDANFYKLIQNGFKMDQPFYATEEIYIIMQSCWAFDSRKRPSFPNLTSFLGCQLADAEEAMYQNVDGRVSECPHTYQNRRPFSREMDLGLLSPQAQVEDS

PDGFRβ, sequence (P09619 33-1106): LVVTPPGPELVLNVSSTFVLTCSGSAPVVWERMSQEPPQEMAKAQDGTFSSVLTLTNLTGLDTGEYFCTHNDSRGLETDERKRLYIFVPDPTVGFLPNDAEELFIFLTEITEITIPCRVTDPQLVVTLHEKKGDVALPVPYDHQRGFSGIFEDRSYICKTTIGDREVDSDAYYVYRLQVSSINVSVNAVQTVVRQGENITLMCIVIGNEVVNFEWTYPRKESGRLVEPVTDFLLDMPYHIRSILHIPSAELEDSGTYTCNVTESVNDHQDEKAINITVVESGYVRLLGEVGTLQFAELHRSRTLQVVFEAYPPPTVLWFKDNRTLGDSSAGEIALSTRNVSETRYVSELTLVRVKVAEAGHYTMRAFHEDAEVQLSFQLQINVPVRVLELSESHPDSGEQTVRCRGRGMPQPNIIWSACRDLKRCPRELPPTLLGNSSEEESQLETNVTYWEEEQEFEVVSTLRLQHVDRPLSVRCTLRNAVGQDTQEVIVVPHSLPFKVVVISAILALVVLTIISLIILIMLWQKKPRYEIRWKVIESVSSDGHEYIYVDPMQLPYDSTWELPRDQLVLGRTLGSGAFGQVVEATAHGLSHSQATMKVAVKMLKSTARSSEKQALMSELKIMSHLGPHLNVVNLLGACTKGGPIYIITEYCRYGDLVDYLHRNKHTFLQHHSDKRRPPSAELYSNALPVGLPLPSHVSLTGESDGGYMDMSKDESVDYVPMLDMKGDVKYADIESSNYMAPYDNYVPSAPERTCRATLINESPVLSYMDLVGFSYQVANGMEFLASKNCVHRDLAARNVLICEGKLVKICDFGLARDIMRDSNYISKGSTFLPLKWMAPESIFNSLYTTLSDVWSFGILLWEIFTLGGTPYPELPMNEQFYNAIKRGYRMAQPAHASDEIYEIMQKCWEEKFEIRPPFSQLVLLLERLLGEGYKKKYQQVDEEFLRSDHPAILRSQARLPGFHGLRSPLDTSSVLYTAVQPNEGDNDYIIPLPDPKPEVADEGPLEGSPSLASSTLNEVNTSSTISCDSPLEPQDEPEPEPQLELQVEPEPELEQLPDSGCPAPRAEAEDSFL

Row | IC50 [1] | IC50 [2] | SMILES
1 | > 50000 nM | – | Cc1cn(-c2cc(F)cc(NC(=O)c3ccc(C)c(Nc4nccc(-c5cccnc5)n4)c3)c2)cn1 [Compound 2b]
2 | – | 118 nM | Cc1cc(NC(=O)c2ccc(C)c(Nc3nccc(-c4cccnc4)n3)c2)cc(-n2cnc(C)c2)c1 [Compound 2c]
